Test results published in the CombiSolv-Exp solvation set (Vermeire and Green 2021).

Experiment: solvent given as SMILES

CC1=CCC2CC3C(C)CCC13C2(C)C (stereo unspecified)
Conditions | solvation free energy, 298 K [kcal/mol]
in O | 0.78

CCCCCCCCCC(C)=O
Conditions | solvation free energy, 298 K [kcal/mol]
in O | -2.15

c1cc2c3c(cccc3c1)CC2
Conditions | solvation free energy, 298 K [kcal/mol]
in C1CCOC1 | -9.86
in C1COCCO1 | -9.66
in CC(C)(C)O | -8.39
in CC(C)CC(C)(C)C | -8.67
in CC(C)CC(C)O | -8.46
in CC(C)CCCC(C)CCO | -8.69
in CC(C)CCO | -8.43
in CC(C)CO | -8.4
in CC(C)O | -8.38
in CC(C)OC(C)C | -9.11
in CCC(C)(C)O | -8.61
in CCC(C)O | -8.46
in CCCC(C)CO | -8.55
in CCCC(C)O | -8.52
in CCCCC(CC)CO | -8.66
in CCCCCC | -8.86
in CCCCCCC | -8.89
in CCCCCCCC | -8.9
in CCCCCCCCC=CCCCCCCCC(=O)OCC(COC(=O)CCCCCCCC=CCCCCCCCC)OC(=O)CCCCCCCC=CCCCCCCCC | -9.22
in CCCCCCCCCC | -8.88
in CCCCCCCCCCO | -8.8
in CCCCCCCCO | -8.61
in CCCCCCCO | -8.75
in CCCCCCO | -8.72
in CCCCCO | -8.68
in CCCCO | -8.6
in CCCCOC(C)=O | -9.43
in CCCCOCCCC | -9.18
in CCCO | -8.53
in CCO | -8.4
in CCOC(C)=O | -9.44
in CCOCC | -9.37
in CNC=O | -8.5
in CO | -8.21
in COC(C)(C)C | -9.25
in COC(C)=O | -9.32
in Cc1ccc(C)cc1 | -9.57
in Cc1ccccc1C | -9.78
in ClC(Cl)(Cl)Cl | -9.63
in ClC(Cl)Cl | -9.84
in ClCCCl | -9.78
in O | -3.18

CC1=CC2C(=C(C)CCC2C(C)C)CC1 (stereo unspecified)
Conditions | solvation free energy, 298 K [kcal/mol]
in O | -0.4

CCCCc1ccccc1
Conditions | solvation free energy, 298 K [kcal/mol]
in C1CCOC1 | -7.33
in CC#N | -6.1
in CC(C)O | -5.98
in CCC(C)=O | -6.73
in CCCCCCC | -6.58
in CCCCCCCCCCCCCCCC | -6.44
in CCO | -5.72
in CO | -5.81
in O | -0.37
in O=Cc1ccco1 | -5.99
in OCCOCCO | -4.81

c1ccc2nc3ccccc3cc2c1
Conditions | solvation free energy, 298 K [kcal/mol]
in O | -6.75

O=C1CCCCC1
Conditions | solvation free energy, 298 K [kcal/mol]
in CCCCCC | -4.98
in CCCCCCC | -5.18
in CCCCCCCCCCCCCCCC | -4.97
in ClC(Cl)(Cl)Cl | -6.23
in ClCCCl | -6.78
in O | -4.91

c1ccc2c(c1)Oc1ccccc1O2
Conditions | solvation free energy, 298 K [kcal/mol]
in O | -3.15

CC1=C(C)C2CCC1C2
Conditions | solvation free energy, 298 K [kcal/mol]
in O | 0.53

S=C=S
Conditions | solvation free energy, 298 K [kcal/mol]
in C1CCCC1 | -3.57
in C1COCCO1 | -3.03
in CC(C)=O | -3.07
in CC(C)CC(C)(C)C | -3.25
in CCC(C)=O | -3.1
in CCCCCCC | -3.33
in CCCCCCCC | -3.29
in CCCCCCCCO | -3.11
in CCCCCO | -3.31
in CCCCO | -3.08
in CCO | -3.1
in CCOC(C)=O | -3.12
in CN(C)C=O | -3
in Cc1ccc(C)cc1 | -3.55
in ClC(Cl)(Cl)Cl | -3.62
in ClC(Cl)=C(Cl)Cl | -3.52
in ClCCCl | -3.29
in N#Cc1ccccc1 | -3.18
in O | 0.16
in O=C1CCCCC1 | -3.31
in c1ccccc1 | -3.6
